Measurements taken from patent US4289876A, “Antisecretory agents” (Bristol-Myers Company, priority 1980, dated 1981).
Values belong to the compound of their own block, whether it stands above or below them.

Tests used:
histamine H2-receptors = conditions: Black et al., Nature 1972; cited from earlier work
[1] = in vivo; cited from earlier work
histamine H2-receptor = biological target: T1, histamine H2-receptor (Cavia porcellus, UniProt P47747); test: Histamine H2-receptor antagonism, isolated guinea pig right atria assay (displacement of histamine concentration-response curve for atrial rate)
T1 construct: The spontaneously beating right atrium was dissected free from other tissues; from tissue; host or cells: isolated spontaneously beating right atrium of male Hartley guinea pigs
Method: Subsequent investigations by Hughes and Coret, Proc. Soc. […] Black et al., Agents and Actions, 3, 133 (1973) and Brimblecombe et al., Fed. […] The present comparative studies were carried out using a modification of the procedure reported by Reinhardt et al., Agents and Actions, 4, 217 (1974).
Male Hartley strain guinea pigs (350-450 gm.) were sacrificed by a blow on the head. The heart was excised and placed in a Petri dish of oxygenated (95% O2, 5% CO2) modified Krebs solution (g./liter: NaCl 6.6, KCl 0.35, MgSO4.7 H2 O 0.295, KH2 PO4 0.162, CaCl2 0.238, NaHCO3 2.1 and dextrose 2.09). The spontaneously beating right atrium was dissected free from other tissues and a silk thread (4-0) attached to each end. The atrium was suspended in a 20 ml. muscle chamber containing oxygenated modified Krebs solution maintained at 32° C. Atrial contractions were recorded isometrically be means of a Grass FT 0.03 force displacement transducer and recordings of contractile force and rate were made with Beckman RP Dynograph.
A resting tension of 1 g. was applied to the atrium and it was allowed to equilibrate for 1 hour.
Concentration-response curve displacement factors were calculated as follows: [formula] […] [formula]

H2-receptor = conditions: cited from earlier work
peptic ulcer disease = conditions: clinical evaluation, Gray et al., Lancet 1977; cited from earlier work
[2] = cited from earlier work
[3] = histamine ED50 after 30 minute incubation with test compound at 3 × 10^-5 M

T1 sequence (P47747 whole entry): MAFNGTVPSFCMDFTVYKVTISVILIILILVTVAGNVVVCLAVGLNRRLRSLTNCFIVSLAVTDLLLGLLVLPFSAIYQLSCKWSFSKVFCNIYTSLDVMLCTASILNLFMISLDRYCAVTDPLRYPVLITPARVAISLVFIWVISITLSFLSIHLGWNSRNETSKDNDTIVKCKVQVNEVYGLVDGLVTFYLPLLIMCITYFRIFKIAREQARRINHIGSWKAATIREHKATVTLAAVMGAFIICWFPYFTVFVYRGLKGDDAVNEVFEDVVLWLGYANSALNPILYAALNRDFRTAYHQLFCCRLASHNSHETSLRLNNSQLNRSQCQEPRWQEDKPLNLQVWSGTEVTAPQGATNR

Structure (SMILES): CNC(=S)NCCCCc1cnc[nH]1 [Burimamide]
mode of antagonism at histamine H2-receptors (histamine H2-receptors): competitive antagonist
oral absorption [1]: oral absorption is poor

Structure (SMILES): NCCc1c[nH]cn1 [Histamine]
Histamine ED50 With 95% Confidence Limits (histamine H2-receptor; histamine control before BL-6075, N=3): 0.39 µg/mL
concentration of maximal response (atrial rate) (histamine H2-receptor; histamine, cumulative addition): 30 µM

Structure (SMILES): CN/C(=N/CCSCc1nc[nH]c1C)NC#N [Cimetidine]
Histamine ED50 With 95% Confidence Limits (histamine H2-receptor; [3]): 4.80 µg/mL
Concentration-Response Curve Displacement Factor (histamine H2-receptor; test compound 3 × 10^-5 M, rightward displacement of histamine curve): 25.26
potency/effectiveness as H2 antagonist vs. earlier compound (H2-receptor): as effective an H2 antagonist as metiamide
efficacy in treatment of peptic ulcer disease (peptic ulcer disease): effective therapeutic agent in the treatment of peptic ulcer disease

Structure (SMILES): C/N=C(\S)NCCSCc1[nH]cnc1C [Metiamide]
potency/effectiveness as H2 antagonist vs. earlier compound (H2-receptor): more potent than burimamide
oral activity in man [2]: orally active in man

potency/activity relative to cimetidine as a histamine H2-receptor antagonist (histamine H2-receptor; based on displacement factors): 8.19 times
Histamine ED50 With 95% Confidence Limits (histamine H2-receptor; [3]): 57.92 µg/mL
Structure (SMILES): C#CCNC(=NCCSCc1ncccc1Cl)NC#N [BL-6083, N-Cyano-N'-(2-propyn-1-yl)-N"-{2-[(3-chloro-2-pyridyl)methylthio]ethyl}guanidine]

Activity Ratio Relative to Cimetidine (histamine H2-receptor; Table 1, ratio of displacement factors, 3 × 10^-5 M): 2.09
Histamine ED50 With 95% Confidence Limits (histamine H2-receptor; [3]): 20.97 µg/mL
Structure (SMILES): C#CCNC(=C[N+](=O)[O-])NCCSCc1ncccc1Cl [BL-6075, 1-Nitro-2-(2-propynylamino)-2-{2-[(3-chloro-2-pyridyl)methylthio]ethylamino}ethylene]
